In patent publication US20260207573A1, “EFFECT OF RIVOCERANIB ON CYTOCHROME P450 ENZYME SUBSTRATES” (ELEVAR THERAPEUTICS, INC., priority 2022, published 2026):

Key:
CYP2C9 [1] = target: T1, CYP2C9 (Homo sapiens, UniProt P11712); assay: Example 2 phase 1 drug-drug interaction study, rivoceranib 700 mg QD + 5+1 cocktail: S- and R-warfarin probe; parameters: AUC(0-∞), Mean (CV %), 5 + 1 cocktail alone / AUC(0-∞), Geometric LSM, 5 + 1 cocktail alone / AUC(0-∞), Mean (CV %), Rivoceranib plus 5 + 1 cocktail / AUC(0-∞), Geometric LSM, Rivoceranib plus 5 + 1 cocktail / AUC(0-t), Mean (CV %), 5 + 1 cocktail alone / AUC(0-t), Geometric LSM, 5 + 1 cocktail alone / AUC(0-t), Mean (CV %), Rivoceranib plus 5 + 1 cocktail / AUC(0-t), Geometric LSM, Rivoceranib plus 5 + 1 cocktail: unit not given beside the values
T1 sequence (P11712 whole entry): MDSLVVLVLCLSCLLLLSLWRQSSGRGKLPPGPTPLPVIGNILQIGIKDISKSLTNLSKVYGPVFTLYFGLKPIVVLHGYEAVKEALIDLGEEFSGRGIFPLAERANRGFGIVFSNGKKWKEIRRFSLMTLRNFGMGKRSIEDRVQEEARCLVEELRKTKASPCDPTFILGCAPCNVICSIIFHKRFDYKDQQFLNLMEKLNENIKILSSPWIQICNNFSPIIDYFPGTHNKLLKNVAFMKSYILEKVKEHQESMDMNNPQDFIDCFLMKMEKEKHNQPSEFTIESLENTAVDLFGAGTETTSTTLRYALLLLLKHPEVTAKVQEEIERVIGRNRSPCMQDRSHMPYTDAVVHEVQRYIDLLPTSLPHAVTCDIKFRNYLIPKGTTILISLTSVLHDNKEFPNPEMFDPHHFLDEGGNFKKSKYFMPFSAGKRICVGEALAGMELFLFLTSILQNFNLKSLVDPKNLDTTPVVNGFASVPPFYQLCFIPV
Protocol: This example describes a pharmacokinetic interaction study in healthy human volunteers dosed with 700 mg rivoceranib and a mixture of cytochrome P450 enzyme (CYP1A2, CYP2C9, CYP2C19, CYP2D6, and CYP3A) substrates.
The primary objective of the study was to evaluate the effect of rivoceranib 700 mg once daily (QD) on the pharmacokinetics (PK) of various CYP substrates to determine drug-drug interactions of rivoceranib.
(§1) This was an open-label, 2-treatment, fixed-sequence drug-drug interaction phase 1 study designed to evaluated the impact of multiple oral doses of 700 mg rivoceranib on the single-dose PK of CYP enzyme substrates administered in a 5+1 Cooperstown probe cocktail (caffeine [CYP1A2], S- and R-warfarin [CYP2C9]+vitamin K, omeprazole [CYP2C19], dextromethorphan [CYP2D6], and midazolam [CYP3A]) in healthy volunteers (N=32). On day 1, volunteers received a single dose of the 5+1 cocktail comprising 200 mg caffeine, 10 mg S- and R-warfarin with 10 mg vitamin K, 40 mg omeprazole, 30 mg dextromethorphan, and 2 mg midazolam. Blood samples were collected pre-dose on day 1 and up to 120 hours post-dose for PK analyses of the substrates in the 5+1 cocktail. On days 6 to 15, volunteers received 700 mg rivoceranib once daily for 10 consecutive days with a single dose of the 5+1 cocktail administered on day 11. Blood samples were collected pre-dose on day 11 and up to 120 hours post cocktail dosing (day 16) for PK analyses. Each dosing was under fasted conditions. There was a washout period of 5 days between day 1 dosing and the first rivoceranib dose on day 6; the 2 cocktail dosings were spaced by 10 days.

CYP2C9 [2] = target: T1, CYP2C9; assay: Example 1 pharmacokinetic interaction study, rivoceranib 200 mg + Cooperstown 5+1 cocktail: warfarin probe; conditions: rivoceranib 200 mg once daily, oral substrate
[3] = human, in vivo
Protocol: as §1

[4] = healthy volunteers, 5+1 cocktail day 11 + rivoceranib 700 mg QD days 6-15
[5] = healthy volunteers, single oral 5+1 cocktail dose day 1, fasted

Q: With `CC(=O)C[C@@H](c1ccccc1)c1c(O)c2ccccc2oc1=O` [S-warfarin] as the compound, how does the “AUC(0-t), Geometric LSM, Rivoceranib plus 5 + 1 cocktail” value (CYP2C9 [1]; [4]) read?
A: The value was 28,490.

Q: What about the “AUC(0-t), Mean (CV %), Rivoceranib plus 5 + 1 cocktail” value (CYP2C9 [1]; [4]) of the same compound?
A: The value was 28,920.

Q: What about the “AUC(0-∞), Geometric LSM, Rivoceranib plus 5 + 1 cocktail” value (CYP2C9 [1]; [4]) of the same compound?
A: Its value is 34,670.

Q: What about the “AUC(0-∞), Mean (CV %), Rivoceranib plus 5 + 1 cocktail” value (CYP2C9 [1]; [4]) of the same compound?
A: Its value is 34,780.

Q: What about the “Cmax, Geometric LSM, Rivoceranib plus 5 + 1 cocktail” value (CYP2C9 [1]; [4]) of the same compound?
A: Its value is 832.5 ng/mL.

Q: And the “Cmax, Mean (CV %), Rivoceranib plus 5 + 1 cocktail” value (CYP2C9 [1]; [4])?
A: Its value is 840.2 ng/mL.

Q: And the “AUC(0-t), Geometric LSM, 5 + 1 cocktail alone” value (CYP2C9 [1]; [5])?
A: The value was 18.880.

Q: What about the “AUC(0-t), Mean (CV %), 5 + 1 cocktail alone” value (CYP2C9 [1]; [5]) of the same compound?
A: The value was 18,880.

Q: What about the “AUC(0-∞), Geometric LSM, 5 + 1 cocktail alone” value (CYP2C9 [1]; [5]) of the same compound?
A: Its value is 20,640.

Q: And the “AUC(0-∞), Mean (CV %), 5 + 1 cocktail alone” value (CYP2C9 [1]; [5])?
A: The value was 20,640.

Q: What about the “Cmax, Geometric LSM, 5 + 1 cocktail alone” value (CYP2C9 [1]; [5]) of the same compound?
A: The value was 701.1 ng/mL.

Q: And the “Cmax, Mean (CV %), 5 + 1 cocktail alone” value (CYP2C9 [1]; [5])?
A: Its value is 701.1 ng/mL.

Q: What about the “increase in AUC0-inf when co-administered with rivoceranib” value (CYP2C9 [1]; rivoceranib 700 mg) of the same compound?
A: Its value is 68%.

Q: And the “increase in Cmax when co-administered with rivoceranib” value (CYP2C9 [1]; rivoceranib 700 mg)?
A: Its value is 19%.

Q: And the “increase in AUC0-∞ with coadministration with rivoceranib” value (CYP2C9 [2])?
A: Its value is 28%.

Q: What about the “increase in Cmax with coadministration with rivoceranib” value (CYP2C9 [2]) of the same compound?
A: The value was 5%.

Q: Which results are given for `N#CC1(c2ccc(NC(=O)c3cccnc3NCc3ccncc3)cc2)CCCC1` [rivoceranib, N-[4-(1-cyanocyclopentyl)phenyl]-2-{[(pyridin-4-yl)methyl]amino}pyridine-3-carboxamide]?
A: volunteers who had a TEAE (number) [3]: 16; volunteers who had a TEAE (percent) [3]: 53.30%
